Reference: publication PMC2791543 (Cancer cell, 2009)
One block for each molecule: values may come before it.

Columns and labels:
αvβ3 integrin = αvβ3 integrin (Homo sapiens, UniProt P05106+P06756); test: ELISA affinity measurement on purified αvβ3 integrin; type: binding; details: compared with iRGD
αvβ5 integrin = αvβ5 integrin (Homo sapiens, UniProt P06756+P18084); test: ELISA affinity measurement on purified αvβ5 integrin; type: binding; details: compared with iRGD
[1] = tested on: de novo pancreatic ductal adenocarcinoma; test: In vivo peptide homing in PDAC mice; details: FAM-labeled peptide, approximately 200 µg, 2 hrs circulation
PPC1 cells = test: Inhibition of CRGDK phage binding to PPC1 cells; type: cell-based, human
Neuropilin-1 = molecular target: T1, Neuropilin-1 (Rattus norvegicus, UniProt Q9QWJ9); test: competition ELISA
T1 chain: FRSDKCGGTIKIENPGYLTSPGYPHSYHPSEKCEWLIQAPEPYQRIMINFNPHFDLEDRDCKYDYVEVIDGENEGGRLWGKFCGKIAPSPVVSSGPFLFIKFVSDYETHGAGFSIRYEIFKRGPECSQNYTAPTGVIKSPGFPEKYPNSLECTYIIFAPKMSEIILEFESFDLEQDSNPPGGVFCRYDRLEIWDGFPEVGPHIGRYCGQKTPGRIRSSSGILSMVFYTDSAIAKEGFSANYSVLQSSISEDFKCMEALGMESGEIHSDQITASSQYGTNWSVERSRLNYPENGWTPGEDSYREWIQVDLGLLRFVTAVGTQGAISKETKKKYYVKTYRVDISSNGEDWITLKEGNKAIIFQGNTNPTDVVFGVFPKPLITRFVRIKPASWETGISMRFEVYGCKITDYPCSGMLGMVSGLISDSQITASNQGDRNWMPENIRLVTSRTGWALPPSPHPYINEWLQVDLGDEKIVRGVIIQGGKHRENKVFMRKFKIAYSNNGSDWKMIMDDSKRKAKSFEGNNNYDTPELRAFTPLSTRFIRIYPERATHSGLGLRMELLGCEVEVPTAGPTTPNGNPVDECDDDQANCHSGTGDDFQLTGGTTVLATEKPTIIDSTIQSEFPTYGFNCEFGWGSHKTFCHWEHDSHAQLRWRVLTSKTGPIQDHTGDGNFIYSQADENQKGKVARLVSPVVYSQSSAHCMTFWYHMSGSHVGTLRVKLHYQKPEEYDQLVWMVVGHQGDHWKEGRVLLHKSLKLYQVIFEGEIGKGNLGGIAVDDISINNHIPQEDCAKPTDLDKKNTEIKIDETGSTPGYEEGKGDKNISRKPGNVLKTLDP

Sequence of αvβ5 integrin (P06756 31-889 limits assumed): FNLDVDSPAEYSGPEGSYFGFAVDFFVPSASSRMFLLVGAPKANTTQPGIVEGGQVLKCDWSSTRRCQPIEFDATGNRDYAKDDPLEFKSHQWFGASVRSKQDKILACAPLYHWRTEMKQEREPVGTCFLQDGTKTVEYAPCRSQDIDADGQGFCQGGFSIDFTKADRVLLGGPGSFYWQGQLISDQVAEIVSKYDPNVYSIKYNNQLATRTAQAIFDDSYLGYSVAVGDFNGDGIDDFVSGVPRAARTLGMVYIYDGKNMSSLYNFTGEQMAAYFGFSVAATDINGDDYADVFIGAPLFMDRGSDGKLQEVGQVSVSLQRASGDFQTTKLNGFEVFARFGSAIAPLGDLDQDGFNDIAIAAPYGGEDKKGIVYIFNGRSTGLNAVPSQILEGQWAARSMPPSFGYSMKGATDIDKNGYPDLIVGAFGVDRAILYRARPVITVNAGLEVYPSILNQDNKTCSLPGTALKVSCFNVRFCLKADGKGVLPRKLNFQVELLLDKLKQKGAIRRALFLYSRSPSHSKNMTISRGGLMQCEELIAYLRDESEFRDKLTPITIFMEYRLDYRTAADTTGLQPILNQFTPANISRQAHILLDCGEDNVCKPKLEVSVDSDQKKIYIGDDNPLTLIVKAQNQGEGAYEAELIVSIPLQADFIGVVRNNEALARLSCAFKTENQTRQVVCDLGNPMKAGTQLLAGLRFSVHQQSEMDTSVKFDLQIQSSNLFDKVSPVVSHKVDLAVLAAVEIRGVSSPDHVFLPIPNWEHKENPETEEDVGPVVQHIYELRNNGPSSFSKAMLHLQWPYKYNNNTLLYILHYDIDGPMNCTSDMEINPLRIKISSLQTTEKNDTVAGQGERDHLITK
Sequence of αvβ5 integrin (P06756 891-1048 limits assumed): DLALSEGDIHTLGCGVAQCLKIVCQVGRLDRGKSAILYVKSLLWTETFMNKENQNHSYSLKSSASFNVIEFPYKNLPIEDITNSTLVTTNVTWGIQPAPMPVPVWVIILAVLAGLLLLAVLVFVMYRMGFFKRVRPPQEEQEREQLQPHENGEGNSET
Sequence of αvβ5 integrin (P18084 24-799): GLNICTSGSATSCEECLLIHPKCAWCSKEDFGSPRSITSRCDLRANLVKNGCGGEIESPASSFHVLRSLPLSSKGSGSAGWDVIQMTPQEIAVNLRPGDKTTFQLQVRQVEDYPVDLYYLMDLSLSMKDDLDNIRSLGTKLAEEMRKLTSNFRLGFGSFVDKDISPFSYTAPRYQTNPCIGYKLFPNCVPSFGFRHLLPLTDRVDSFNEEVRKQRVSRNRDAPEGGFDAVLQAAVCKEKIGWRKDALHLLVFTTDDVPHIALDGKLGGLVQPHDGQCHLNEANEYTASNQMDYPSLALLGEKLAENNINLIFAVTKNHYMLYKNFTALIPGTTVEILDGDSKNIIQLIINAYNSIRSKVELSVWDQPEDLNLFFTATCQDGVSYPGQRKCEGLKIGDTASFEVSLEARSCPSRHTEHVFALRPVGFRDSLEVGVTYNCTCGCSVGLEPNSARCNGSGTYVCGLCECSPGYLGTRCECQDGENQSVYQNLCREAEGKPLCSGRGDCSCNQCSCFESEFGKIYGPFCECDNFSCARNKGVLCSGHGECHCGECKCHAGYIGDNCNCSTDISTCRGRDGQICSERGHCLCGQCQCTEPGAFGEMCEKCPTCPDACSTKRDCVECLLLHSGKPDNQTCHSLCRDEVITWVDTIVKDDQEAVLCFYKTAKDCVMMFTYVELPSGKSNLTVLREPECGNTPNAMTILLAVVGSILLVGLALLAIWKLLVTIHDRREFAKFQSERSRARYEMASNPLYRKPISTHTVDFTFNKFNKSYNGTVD
Sequence of αvβ3 integrin (P06756 31-889 limits assumed): as the sequence (P06756 31-889 limits assumed) above
Sequence of αvβ3 integrin (P06756 891-1048 limits assumed): as the sequence (P06756 891-1048 limits assumed) above
Sequence of αvβ3 integrin (P05106 27-788): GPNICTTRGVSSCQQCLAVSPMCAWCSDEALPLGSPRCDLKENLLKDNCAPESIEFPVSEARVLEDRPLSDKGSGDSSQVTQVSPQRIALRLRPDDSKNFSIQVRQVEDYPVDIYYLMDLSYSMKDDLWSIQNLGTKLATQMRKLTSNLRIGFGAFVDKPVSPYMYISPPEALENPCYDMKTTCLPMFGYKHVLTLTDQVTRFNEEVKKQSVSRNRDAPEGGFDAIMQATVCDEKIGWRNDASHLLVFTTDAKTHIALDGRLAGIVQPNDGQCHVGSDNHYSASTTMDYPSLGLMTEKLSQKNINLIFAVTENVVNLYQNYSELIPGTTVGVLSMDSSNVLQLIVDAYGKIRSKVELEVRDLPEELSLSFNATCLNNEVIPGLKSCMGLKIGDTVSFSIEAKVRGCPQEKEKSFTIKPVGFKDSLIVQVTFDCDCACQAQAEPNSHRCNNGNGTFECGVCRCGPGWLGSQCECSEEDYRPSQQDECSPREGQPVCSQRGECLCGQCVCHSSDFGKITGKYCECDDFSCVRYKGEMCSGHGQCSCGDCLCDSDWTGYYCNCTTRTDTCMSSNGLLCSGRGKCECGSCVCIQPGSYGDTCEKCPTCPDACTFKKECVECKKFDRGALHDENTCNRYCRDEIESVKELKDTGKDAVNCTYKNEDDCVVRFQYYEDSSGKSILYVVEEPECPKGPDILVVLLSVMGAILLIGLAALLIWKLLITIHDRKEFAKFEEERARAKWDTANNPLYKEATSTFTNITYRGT

affinity for αvβ3, by ability to block iRGD binding (αvβ3 integrin): in the same range
affinity for αvβ5, by ability to block iRGD binding (αvβ5 integrin): in the same range
Molecule: CRGDC

Molecule: CRGEKGPDC [iRGE]
tumor fluorescence after i.v. injection [1]: minimal tumor fluorescence

Molecule: RPARPAR
inhibition of CRGDK phage binding to PPC1 cells by peptide (PPC1 cells): inhibited

Kd (Neuropilin-1): 1400 nM
Molecule: CRGDK
